Assay results as given in ChEMBL document CHEMBL1201862, “PubChem BioAssay data set” (2004).
Active and inactive are the calls of the source.

What was measured:
Type in all cases: functional
[1] = target: Cyclin-dependent kinase 7 (Homo sapiens, UniProt P50613);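 note: value comes from a kinome-wide kinase profiling panel in which CDK7 is one member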
[2] = target: T1, cAMP-dependent protein kinase catalytic subunit PRKX (Homo sapiens, UniProt P51817)
T1 sequence (P51817 whole entry): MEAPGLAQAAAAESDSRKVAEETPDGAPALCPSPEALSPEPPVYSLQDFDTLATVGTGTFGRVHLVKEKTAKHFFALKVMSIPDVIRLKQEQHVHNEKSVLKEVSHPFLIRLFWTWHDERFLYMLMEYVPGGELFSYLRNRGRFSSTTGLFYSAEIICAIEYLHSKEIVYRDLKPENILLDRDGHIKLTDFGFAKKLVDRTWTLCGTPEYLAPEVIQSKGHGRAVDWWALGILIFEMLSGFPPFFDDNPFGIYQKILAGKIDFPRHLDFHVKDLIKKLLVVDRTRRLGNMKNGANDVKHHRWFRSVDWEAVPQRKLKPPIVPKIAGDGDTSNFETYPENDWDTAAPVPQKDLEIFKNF

[3] = target: Protein kinase C theta type (Homo sapiens, UniProt Q04759); assay: Navigating the Kinome. Panel member name: PRKCQ
[4] = target: Cyclin-dependent kinase 5 (Homo sapiens, UniProt Q00535);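 note: CDK5 measured as one member of a kinase profiling panel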
[5] = target: BDNF/NT-3 growth factors receptor (Homo sapiens, UniProt Q16620);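 note: NTRK2 measured as one member of a broad kinome-wide kinase profiling panel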
[6] = target: T2, Serine/threonine-protein kinase TBK1 (Homo sapiens, UniProt Q9UHD2); assay: Navigating the Kinome. Panel member name: TBK1
T2 sequence (Q9UHD2 whole entry): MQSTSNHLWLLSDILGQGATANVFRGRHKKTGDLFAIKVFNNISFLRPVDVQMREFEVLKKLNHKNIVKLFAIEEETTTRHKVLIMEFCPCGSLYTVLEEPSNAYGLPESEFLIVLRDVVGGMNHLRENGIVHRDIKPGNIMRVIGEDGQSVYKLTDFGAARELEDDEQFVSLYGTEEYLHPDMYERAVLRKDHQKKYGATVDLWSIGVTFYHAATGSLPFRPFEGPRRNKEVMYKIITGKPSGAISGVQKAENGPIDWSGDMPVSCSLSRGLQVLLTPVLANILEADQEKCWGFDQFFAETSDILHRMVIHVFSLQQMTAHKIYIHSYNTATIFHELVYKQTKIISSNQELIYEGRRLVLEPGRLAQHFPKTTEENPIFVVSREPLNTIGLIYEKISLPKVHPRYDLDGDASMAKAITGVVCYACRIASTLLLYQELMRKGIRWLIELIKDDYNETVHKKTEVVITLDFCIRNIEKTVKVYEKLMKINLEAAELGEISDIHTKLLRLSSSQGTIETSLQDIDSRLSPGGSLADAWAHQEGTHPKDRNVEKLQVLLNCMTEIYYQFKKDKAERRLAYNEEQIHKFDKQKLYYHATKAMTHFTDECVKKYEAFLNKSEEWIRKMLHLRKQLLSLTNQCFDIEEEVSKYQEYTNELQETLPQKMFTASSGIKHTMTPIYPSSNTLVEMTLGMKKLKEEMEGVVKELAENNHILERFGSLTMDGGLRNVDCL

[7] = target: Dual specificity tyrosine-phosphorylation-regulated kinase 1B (Homo sapiens, UniProt Q9Y463); assay: Navigating the Kinome. Panel member name: DYRK1B
[8] = target: Dual specificity tyrosine-phosphorylation-regulated kinase 1A (Homo sapiens, UniProt Q13627);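 note: measured against DYRK1A as one member of a broad kinome profiling panel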
[9] = target: Cyclin-dependent kinase 9 (Homo sapiens, UniProt P50750);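 note: value from the CDK9 entry of a kinome-spanning kinase panel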
[10] = target: Death-associated protein kinase 3 (Homo sapiens, UniProt O43293);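 note: measured as one member of a kinome-wide profiling panel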
[11] = target: Insulin-like growth factor 1 receptor (Homo sapiens, UniProt P08069); assay: Navigating the Kinome. Panel member name: IGF1R
[12] = target: cAMP-dependent protein kinase catalytic subunit alpha (Homo sapiens, UniProt P17612)
[13] = target: Dual specificity protein kinase CLK4 (Homo sapiens, UniProt Q9HAZ1)
[14] = target: Proto-oncogene tyrosine-protein kinase receptor Ret (Homo sapiens, UniProt P07949);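 note: measured within a kinome-wide profiling panel, RET as the panel member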
[15] = target: T3, Mitogen-activated protein kinase kinase kinase kinase 2 (Homo sapiens, UniProt Q12851);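 note: measured as one member of a kinome-wide kinase panel, with MAP4K2 as the panel entry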
T3 sequence (Q12851 whole entry): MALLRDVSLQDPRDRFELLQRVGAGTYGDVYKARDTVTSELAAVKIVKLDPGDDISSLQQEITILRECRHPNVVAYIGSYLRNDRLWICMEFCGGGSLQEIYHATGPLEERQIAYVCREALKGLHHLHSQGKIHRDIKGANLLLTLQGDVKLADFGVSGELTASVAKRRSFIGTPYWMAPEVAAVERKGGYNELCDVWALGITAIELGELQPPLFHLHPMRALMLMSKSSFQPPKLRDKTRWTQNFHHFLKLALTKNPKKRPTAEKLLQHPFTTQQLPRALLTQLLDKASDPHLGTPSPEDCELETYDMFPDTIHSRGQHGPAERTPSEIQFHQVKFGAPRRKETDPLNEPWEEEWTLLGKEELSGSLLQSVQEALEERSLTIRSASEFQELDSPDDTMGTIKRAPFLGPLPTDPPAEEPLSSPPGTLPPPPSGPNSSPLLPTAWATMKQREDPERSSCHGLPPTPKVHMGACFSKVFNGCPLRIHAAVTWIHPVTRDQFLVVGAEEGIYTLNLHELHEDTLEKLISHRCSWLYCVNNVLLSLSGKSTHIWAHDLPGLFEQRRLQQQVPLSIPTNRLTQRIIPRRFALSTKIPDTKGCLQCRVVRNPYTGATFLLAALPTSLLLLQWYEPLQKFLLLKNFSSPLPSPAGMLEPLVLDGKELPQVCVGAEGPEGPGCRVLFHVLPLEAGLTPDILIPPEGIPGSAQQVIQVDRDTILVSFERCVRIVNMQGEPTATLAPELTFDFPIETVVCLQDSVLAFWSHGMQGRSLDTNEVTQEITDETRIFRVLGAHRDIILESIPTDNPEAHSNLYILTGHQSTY

[16] = target: Dual specificity protein kinase CLK2 (Homo sapiens, UniProt P49760)
[17] = target: Vascular endothelial growth factor receptor 2 (Homo sapiens, UniProt P35968)
[18] = target: Platelet-derived growth factor receptor alpha (Homo sapiens, UniProt P16234); assay: Navigating the Kinome. Panel member name: PDGFRA
[19] = target: Dual specificity mitogen-activated protein kinase kinase 1 (Homo sapiens, UniProt Q02750); assay: Navigating the Kinome. Panel member name: MAP2K1
[20] = target: Vascular endothelial growth factor receptor 1 (Homo sapiens, UniProt P17948);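 note: measured within a kinome-wide profiling panel, FLT1 as the panel member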
Sequence of Vascular endothelial growth factor receptor 1 (P17948 whole entry): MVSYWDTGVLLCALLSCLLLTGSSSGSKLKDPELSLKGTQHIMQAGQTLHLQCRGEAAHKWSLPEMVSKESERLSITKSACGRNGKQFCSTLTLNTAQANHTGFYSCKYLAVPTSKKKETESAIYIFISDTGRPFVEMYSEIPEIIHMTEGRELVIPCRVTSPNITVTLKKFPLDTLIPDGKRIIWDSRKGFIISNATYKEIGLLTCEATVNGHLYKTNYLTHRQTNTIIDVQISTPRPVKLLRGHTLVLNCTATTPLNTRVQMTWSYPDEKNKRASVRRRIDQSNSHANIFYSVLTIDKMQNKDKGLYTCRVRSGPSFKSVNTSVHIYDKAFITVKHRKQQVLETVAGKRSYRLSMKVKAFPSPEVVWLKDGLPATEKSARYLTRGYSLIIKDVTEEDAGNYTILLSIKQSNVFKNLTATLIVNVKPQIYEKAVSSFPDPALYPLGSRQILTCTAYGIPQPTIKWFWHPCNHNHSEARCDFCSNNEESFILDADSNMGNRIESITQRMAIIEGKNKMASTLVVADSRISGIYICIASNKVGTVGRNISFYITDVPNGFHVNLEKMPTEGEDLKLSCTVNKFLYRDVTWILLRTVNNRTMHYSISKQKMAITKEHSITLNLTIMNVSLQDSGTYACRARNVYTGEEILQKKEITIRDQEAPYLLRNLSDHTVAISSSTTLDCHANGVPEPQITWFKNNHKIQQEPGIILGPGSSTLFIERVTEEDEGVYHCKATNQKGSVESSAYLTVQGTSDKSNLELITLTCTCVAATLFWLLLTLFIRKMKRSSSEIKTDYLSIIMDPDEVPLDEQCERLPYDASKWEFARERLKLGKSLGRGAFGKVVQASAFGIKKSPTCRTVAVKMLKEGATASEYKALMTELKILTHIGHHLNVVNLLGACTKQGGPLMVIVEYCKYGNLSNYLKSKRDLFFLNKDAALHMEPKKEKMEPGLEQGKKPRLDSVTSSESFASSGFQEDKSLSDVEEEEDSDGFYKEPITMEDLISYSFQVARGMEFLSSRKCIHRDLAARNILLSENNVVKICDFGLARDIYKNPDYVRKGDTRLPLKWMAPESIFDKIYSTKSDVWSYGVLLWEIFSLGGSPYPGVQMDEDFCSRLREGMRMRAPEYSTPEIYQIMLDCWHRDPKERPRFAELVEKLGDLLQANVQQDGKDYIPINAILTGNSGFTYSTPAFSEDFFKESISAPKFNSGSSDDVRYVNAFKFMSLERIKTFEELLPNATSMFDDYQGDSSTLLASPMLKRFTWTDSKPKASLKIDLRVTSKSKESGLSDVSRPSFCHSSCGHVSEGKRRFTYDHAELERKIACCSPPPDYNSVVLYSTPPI

Sequence of Dual specificity mitogen-activated protein kinase kinase 1 (Q02750 whole entry): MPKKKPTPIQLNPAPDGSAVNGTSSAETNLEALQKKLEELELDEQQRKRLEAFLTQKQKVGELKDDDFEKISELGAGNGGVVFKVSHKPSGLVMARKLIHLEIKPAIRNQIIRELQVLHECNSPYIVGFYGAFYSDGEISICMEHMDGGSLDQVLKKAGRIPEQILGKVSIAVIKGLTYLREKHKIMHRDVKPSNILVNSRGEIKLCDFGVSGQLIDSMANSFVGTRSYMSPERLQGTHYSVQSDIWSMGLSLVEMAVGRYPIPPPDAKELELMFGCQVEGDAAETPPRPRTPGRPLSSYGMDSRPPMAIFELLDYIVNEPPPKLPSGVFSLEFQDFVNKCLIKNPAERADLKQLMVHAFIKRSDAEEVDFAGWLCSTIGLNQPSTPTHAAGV
Sequence of Insulin-like growth factor 1 receptor (P08069 31-736 limits assumed): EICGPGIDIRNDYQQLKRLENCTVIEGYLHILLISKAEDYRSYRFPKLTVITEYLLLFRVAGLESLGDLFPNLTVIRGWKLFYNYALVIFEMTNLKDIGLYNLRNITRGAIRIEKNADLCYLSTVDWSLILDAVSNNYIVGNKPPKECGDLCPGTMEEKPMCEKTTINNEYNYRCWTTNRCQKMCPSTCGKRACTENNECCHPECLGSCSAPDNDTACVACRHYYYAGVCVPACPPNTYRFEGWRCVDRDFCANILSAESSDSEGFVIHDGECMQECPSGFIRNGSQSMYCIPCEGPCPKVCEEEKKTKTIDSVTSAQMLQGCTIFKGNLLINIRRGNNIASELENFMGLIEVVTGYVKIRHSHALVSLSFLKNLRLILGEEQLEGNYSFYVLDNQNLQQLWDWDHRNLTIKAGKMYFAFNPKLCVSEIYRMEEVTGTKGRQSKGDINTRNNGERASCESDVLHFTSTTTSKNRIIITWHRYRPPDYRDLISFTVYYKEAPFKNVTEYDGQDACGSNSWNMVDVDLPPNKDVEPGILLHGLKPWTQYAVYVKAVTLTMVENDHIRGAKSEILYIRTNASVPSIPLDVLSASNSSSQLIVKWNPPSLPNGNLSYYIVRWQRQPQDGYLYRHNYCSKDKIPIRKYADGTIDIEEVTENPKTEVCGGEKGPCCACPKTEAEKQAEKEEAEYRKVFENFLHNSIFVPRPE
Sequence of Insulin-like growth factor 1 receptor (P08069 741-1367 limits assumed): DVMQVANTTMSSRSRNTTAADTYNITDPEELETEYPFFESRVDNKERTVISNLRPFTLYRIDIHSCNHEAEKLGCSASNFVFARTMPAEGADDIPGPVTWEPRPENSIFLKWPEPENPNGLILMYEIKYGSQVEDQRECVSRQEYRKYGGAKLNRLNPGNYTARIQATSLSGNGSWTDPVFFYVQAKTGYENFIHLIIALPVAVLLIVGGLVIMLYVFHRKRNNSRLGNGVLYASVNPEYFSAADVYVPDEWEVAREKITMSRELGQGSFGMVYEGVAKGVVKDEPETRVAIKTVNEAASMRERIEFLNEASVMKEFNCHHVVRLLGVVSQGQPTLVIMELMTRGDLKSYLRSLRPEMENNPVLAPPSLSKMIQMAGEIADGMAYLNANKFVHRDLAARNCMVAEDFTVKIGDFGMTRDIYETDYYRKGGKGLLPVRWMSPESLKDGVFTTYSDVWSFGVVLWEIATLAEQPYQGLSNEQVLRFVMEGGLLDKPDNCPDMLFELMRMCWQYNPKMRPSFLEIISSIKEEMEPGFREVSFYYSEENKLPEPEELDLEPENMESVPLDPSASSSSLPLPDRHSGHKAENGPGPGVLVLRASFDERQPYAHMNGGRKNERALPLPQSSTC
Sequence of Vascular endothelial growth factor receptor 2 (P35968 whole entry): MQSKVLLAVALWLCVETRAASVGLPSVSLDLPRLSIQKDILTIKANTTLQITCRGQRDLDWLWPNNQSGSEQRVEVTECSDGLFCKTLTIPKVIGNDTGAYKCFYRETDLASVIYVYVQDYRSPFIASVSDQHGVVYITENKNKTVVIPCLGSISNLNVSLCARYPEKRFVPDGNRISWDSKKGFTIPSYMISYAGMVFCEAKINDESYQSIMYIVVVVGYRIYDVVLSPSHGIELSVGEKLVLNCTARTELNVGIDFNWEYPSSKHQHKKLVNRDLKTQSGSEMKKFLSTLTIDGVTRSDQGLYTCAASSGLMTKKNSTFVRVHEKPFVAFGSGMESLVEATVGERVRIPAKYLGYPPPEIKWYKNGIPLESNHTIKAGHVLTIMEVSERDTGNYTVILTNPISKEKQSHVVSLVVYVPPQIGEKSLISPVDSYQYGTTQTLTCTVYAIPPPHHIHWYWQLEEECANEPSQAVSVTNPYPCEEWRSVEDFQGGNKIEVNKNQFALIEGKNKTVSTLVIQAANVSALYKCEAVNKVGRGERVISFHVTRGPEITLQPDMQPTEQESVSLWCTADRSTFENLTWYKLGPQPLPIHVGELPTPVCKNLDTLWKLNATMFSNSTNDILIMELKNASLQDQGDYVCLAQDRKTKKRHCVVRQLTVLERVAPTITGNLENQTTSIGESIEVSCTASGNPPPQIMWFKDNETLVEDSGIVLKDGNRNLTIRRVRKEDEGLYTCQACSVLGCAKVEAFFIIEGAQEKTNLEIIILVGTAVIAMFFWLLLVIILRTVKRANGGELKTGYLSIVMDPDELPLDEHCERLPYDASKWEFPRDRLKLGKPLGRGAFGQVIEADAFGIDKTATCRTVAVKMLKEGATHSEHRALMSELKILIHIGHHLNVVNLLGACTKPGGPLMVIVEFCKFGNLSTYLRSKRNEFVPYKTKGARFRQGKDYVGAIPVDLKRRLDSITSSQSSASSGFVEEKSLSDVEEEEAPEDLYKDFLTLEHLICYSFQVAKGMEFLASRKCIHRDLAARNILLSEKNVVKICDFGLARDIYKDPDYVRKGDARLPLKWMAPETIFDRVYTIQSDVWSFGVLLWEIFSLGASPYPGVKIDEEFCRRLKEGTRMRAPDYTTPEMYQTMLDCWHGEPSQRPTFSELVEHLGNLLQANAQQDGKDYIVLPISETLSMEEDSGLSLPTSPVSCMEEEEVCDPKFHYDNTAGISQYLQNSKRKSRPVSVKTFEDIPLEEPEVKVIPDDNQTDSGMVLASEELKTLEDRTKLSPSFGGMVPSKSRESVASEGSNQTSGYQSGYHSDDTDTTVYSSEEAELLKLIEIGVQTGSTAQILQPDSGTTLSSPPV
Sequence of Cyclin-dependent kinase 9 (P50750 whole entry): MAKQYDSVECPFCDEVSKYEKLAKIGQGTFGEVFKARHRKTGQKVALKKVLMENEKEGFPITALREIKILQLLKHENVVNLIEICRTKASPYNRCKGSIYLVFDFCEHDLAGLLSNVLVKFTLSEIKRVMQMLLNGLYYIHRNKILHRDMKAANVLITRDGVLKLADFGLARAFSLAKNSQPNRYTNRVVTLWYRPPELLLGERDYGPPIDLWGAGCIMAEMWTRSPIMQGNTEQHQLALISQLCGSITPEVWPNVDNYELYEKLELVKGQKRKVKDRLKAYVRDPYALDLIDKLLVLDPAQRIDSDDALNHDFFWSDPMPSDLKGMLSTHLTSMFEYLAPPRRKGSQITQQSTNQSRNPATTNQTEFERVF

| SMILES | Ki [1] | Ki [2] | Ki [3] | Ki [4] | Ki [5] | Ki [6] | Ki [7] | Ki [8] | Ki [9] | Ki [10] | Ki [11] | Ki [12] | Ki [13] | Ki [14] | Ki [15] | Ki [16] | Ki [17] | Ki [18] | Ki [19] | Ki [20] |
| --- | --- | --- | --- | --- | --- | --- | --- | --- | --- | --- | --- | --- | --- | --- | --- | --- | --- | --- | --- | --- |
| CCCCC(=O)Nc1cc(-c2c[nH]c3ncccc23)cc(Cl)n1 | > 3.98 µM (inactive) | > 3.16 µM (inactive) | > 2.51 µM (inactive) | 1 µM (active) | > 3.98 µM (inactive) | > 3.16 µM (inactive) | 0.0398 µM (active) | 0.0398 µM (active) | > 1.58 µM (inactive) | > 3.16 µM (inactive) | > 2.51 µM (inactive) | 0.316 µM (active) | 0.0126 µM (active) | > 3.16 µM (inactive) | > 2.51 µM (inactive) | 1.58 µM (active) | > 2.51 µM (inactive) | > 2.51 µM (inactive) | > 3.16 µM (inactive) | > 3.98 µM (inactive) |
| Oc1ccc(-c2nc(-c3ccncc3)c(-c3ccc(F)cc3)[nH]2)cc1 [SB-202190] | > 3.98 µM (inactive) | > 3.16 µM (inactive) | > 2.51 µM (inactive) | > 3.16 µM (inactive) | 0.794 µM (active) | > 3.16 µM (inactive) | > 2.51 µM (inactive) | > 2 µM (inactive) | > 1.58 µM (inactive) | > 5.01 µM (inactive) | 1.26 µM (active) | 1 µM (active) | 2.51 µM (active) | > 3.16 µM (inactive) | > 2.51 µM (inactive) | > 3.98 µM (inactive) | > 2 µM (inactive) | > 3.16 µM (inactive) | > 3.16 µM (inactive) | > 3.98 µM (inactive) |
| COc1cccc(C(C)NC(=O)c2sc(-c3ccncc3)nc2C)c1 (stereo not given) | > 3.98 µM (inactive) | > 3.16 µM (inactive) | > 2.51 µM (inactive) | > 3.16 µM (inactive) | > 3.98 µM (inactive) | > 3.16 µM (inactive) | > 2.51 µM (inactive) | > 2 µM (inactive) | > 1.58 µM (inactive) | > 5.01 µM (inactive) | > 2.51 µM (inactive) | > 1.26 µM (inactive) | > 2.51 µM (inactive) | > 3.16 µM (inactive) | > 2.51 µM (inactive) | > 3.98 µM (inactive) | > 2.51 µM (inactive) | > 2.51 µM (inactive) | > 3.16 µM (inactive) | > 3.98 µM (inactive) |
